Settings: Liquid; for viscosity: 101.33 kPa, Concentric cylinders viscometry; for mass density: Vibrating tube method

COC(=O)CCCCC(=O)OC [dimethyl 1,6-hexanedioate]
Settings | viscosity [mPa·s]
283.15 K | 4.39
288.15 K | 3.82
293.15 K | 3.36
298.15 K | 2.98
303.15 K | 2.67
308.15 K | 2.4
313.15 K | 2.18
318.15 K | 1.99
323.15 K | 1.82
328.15 K | 1.68
333.15 K | 1.55
338.15 K | 1.44
343.15 K | 1.34
348.15 K | 1.25
353.15 K | 1.17
358.15 K | 1.1
363.15 K | 1.03
368.15 K | 0.97
373.15 K | 0.92

Settings | mass density [kg/m3]
293.15 K, 100 kPa | 1061.5
293.15 K, 10000 kPa | 1067.7
293.15 K, 20000 kPa | 1073.6
293.15 K, 30000 kPa | 1079.2
293.15 K, 40000 kPa | 1084.5
293.15 K, 50000 kPa | 1089.6
293.15 K, 60000 kPa | 1094.7
293.15 K, 70000 kPa | 1099.5
293.15 K, 80000 kPa | 1104.2
293.15 K, 90000 kPa | 1108.5
293.15 K, 100000 kPa | 1112.8
303.15 K, 100 kPa | 1051.8
303.15 K, 10000 kPa | 1058
303.15 K, 20000 kPa | 1064.4
303.15 K, 30000 kPa | 1070.5
303.15 K, 40000 kPa | 1076
303.15 K, 50000 kPa | 1081.5
303.15 K, 60000 kPa | 1086.7
303.15 K, 70000 kPa | 1091.5
303.15 K, 80000 kPa | 1096.1
303.15 K, 90000 kPa | 1100.6
303.15 K, 100000 kPa | 1104.7
303.15 K, 110000 kPa | 1108.9
303.15 K, 120000 kPa | 1113.1
303.15 K, 130000 kPa | 1117
303.15 K, 140000 kPa | 1120.9
313.15 K, 100 kPa | 1042.1
313.15 K, 10000 kPa | 1048.9
313.15 K, 20000 kPa | 1055.6
313.15 K, 30000 kPa | 1061.8
313.15 K, 40000 kPa | 1067.5
313.15 K, 50000 kPa | 1073.2
313.15 K, 60000 kPa | 1078.6
313.15 K, 70000 kPa | 1083.7
313.15 K, 80000 kPa | 1088.7
313.15 K, 90000 kPa | 1093.2
313.15 K, 100000 kPa | 1097.2
313.15 K, 110000 kPa | 1101.5
313.15 K, 120000 kPa | 1105.6
313.15 K, 130000 kPa | 1109.8
313.15 K, 140000 kPa | 1113.8
323.15 K, 100 kPa | 1031.6
323.15 K, 10000 kPa | 1038.9
323.15 K, 20000 kPa | 1045.7
323.15 K, 30000 kPa | 1052.1
323.15 K, 40000 kPa | 1058.3
323.15 K, 50000 kPa | 1063.9
323.15 K, 60000 kPa | 1069.1
323.15 K, 70000 kPa | 1074.4
323.15 K, 80000 kPa | 1079.3
323.15 K, 90000 kPa | 1084.2
323.15 K, 100000 kPa | 1088.9
323.15 K, 110000 kPa | 1093.3
323.15 K, 120000 kPa | 1097.9
323.15 K, 130000 kPa | 1102.2
323.15 K, 140000 kPa | 1106.2
333.15 K, 100 kPa | 1022.6
333.15 K, 10000 kPa | 1029.6
333.15 K, 20000 kPa | 1036.8
333.15 K, 30000 kPa | 1043.6
333.15 K, 40000 kPa | 1049.9
333.15 K, 50000 kPa | 1056
333.15 K, 60000 kPa | 1061.5
333.15 K, 70000 kPa | 1066.9
333.15 K, 80000 kPa | 1072
333.15 K, 90000 kPa | 1076.9
333.15 K, 100000 kPa | 1082
333.15 K, 110000 kPa | 1086.8
333.15 K, 120000 kPa | 1091.1
333.15 K, 130000 kPa | 1095.5
333.15 K, 140000 kPa | 1099.8
343.15 K, 100 kPa | 1012.3
343.15 K, 10000 kPa | 1020.4
343.15 K, 20000 kPa | 1028.1
343.15 K, 30000 kPa | 1034.8
343.15 K, 40000 kPa | 1041.3
343.15 K, 50000 kPa | 1047.6
343.15 K, 60000 kPa | 1053.5
343.15 K, 70000 kPa | 1058.6
343.15 K, 80000 kPa | 1064.2
343.15 K, 90000 kPa | 1069.3
343.15 K, 100000 kPa | 1074.1
343.15 K, 110000 kPa | 1079
343.15 K, 120000 kPa | 1083.9
343.15 K, 130000 kPa | 1088.3
343.15 K, 140000 kPa | 1092.4
353.15 K, 100 kPa | 1002.2
353.15 K, 10000 kPa | 1010.8
353.15 K, 20000 kPa | 1018.4
353.15 K, 30000 kPa | 1025.6
353.15 K, 40000 kPa | 1032.8
353.15 K, 50000 kPa | 1039
353.15 K, 60000 kPa | 1045.4
353.15 K, 70000 kPa | 1051.2
353.15 K, 80000 kPa | 1056.7
353.15 K, 90000 kPa | 1061.9
353.15 K, 100000 kPa | 1067.3
353.15 K, 110000 kPa | 1072.2
353.15 K, 120000 kPa | 1076.6
353.15 K, 130000 kPa | 1081.3
353.15 K, 140000 kPa | 1085.6
363.15 K, 100 kPa | 992.2
363.15 K, 10000 kPa | 1000.6
363.15 K, 20000 kPa | 1008.9
363.15 K, 30000 kPa | 1016.6
363.15 K, 40000 kPa | 1023.7
363.15 K, 50000 kPa | 1030.4
363.15 K, 60000 kPa | 1036.8
363.15 K, 70000 kPa | 1042.9
363.15 K, 80000 kPa | 1048.5
363.15 K, 90000 kPa | 1053.9
363.15 K, 100000 kPa | 1059.2
363.15 K, 110000 kPa | 1064.3
363.15 K, 120000 kPa | 1069.1
363.15 K, 130000 kPa | 1074.1
363.15 K, 140000 kPa | 1078.5
373.15 K, 100 kPa | 981.9
373.15 K, 10000 kPa | 991
373.15 K, 20000 kPa | 999.5
373.15 K, 30000 kPa | 1007.7
373.15 K, 40000 kPa | 1014.8
373.15 K, 50000 kPa | 1021.8
373.15 K, 60000 kPa | 1029
373.15 K, 70000 kPa | 1035
373.15 K, 80000 kPa | 1040.9
373.15 K, 90000 kPa | 1046.4
373.15 K, 100000 kPa | 1051
373.15 K, 110000 kPa | 1056.3
373.15 K, 120000 kPa | 1061.6
373.15 K, 130000 kPa | 1066
373.15 K, 140000 kPa | 1071.2
383.15 K, 100 kPa | 972.2
383.15 K, 10000 kPa | 981.1
383.15 K, 20000 kPa | 990.4
383.15 K, 30000 kPa | 998.7
383.15 K, 40000 kPa | 1006.3
383.15 K, 50000 kPa | 1013.9
383.15 K, 60000 kPa | 1020.5
383.15 K, 70000 kPa | 1027
383.15 K, 80000 kPa | 1033.2
383.15 K, 90000 kPa | 1039
383.15 K, 100000 kPa | 1044.7
383.15 K, 110000 kPa | 1050.1
383.15 K, 120000 kPa | 1055.2
383.15 K, 130000 kPa | 1059.9
383.15 K, 140000 kPa | 1065.1
393.15 K, 100 kPa | 961.7
393.15 K, 10000 kPa | 971.7
393.15 K, 20000 kPa | 981.5
393.15 K, 30000 kPa | 990.1
393.15 K, 40000 kPa | 998.2
393.15 K, 50000 kPa | 1005.9
393.15 K, 60000 kPa | 1013
393.15 K, 70000 kPa | 1019.7
393.15 K, 80000 kPa | 1026
393.15 K, 90000 kPa | 1032.1
393.15 K, 100000 kPa | 1037.7
393.15 K, 110000 kPa | 1043.1
393.15 K, 120000 kPa | 1048.7
393.15 K, 130000 kPa | 1053.8
393.15 K, 140000 kPa | 1058.5
403.15 K, 100 kPa | 951.5
403.15 K, 10000 kPa | 961.4
403.15 K, 20000 kPa | 971.6
403.15 K, 30000 kPa | 980.8
403.15 K, 40000 kPa | 989.3
403.15 K, 50000 kPa | 997.3
403.15 K, 60000 kPa | 1004.5
403.15 K, 70000 kPa | 1011.5
403.15 K, 80000 kPa | 1018.2
403.15 K, 90000 kPa | 1024.5
403.15 K, 100000 kPa | 1030.2
403.15 K, 110000 kPa | 1035.9
403.15 K, 120000 kPa | 1041.3
403.15 K, 130000 kPa | 1046.6
403.15 K, 140000 kPa | 1051.6

Reference: the NIST ThermoML archive (doi:10.1021/je100237h)
